Experimental data taken from patent US20020035061A1, “COMPOSITIONS AND METHODS FOR TREATING INFECTIONS USING CATIONIC PEPTIDES ALONE OR IN COMBINATION WITH ANTIBIOTICS” (priority 1996, published 2002).
Converted amounts (≈) assume the structure as drawn. Read-outs that look alike come from different tables or passages of the source.

What was measured:
[1] = Cell death by Cytotox (Promega) lactate dehydrogenase release; assay type: cell-based; settings: LDH release
Protocol: In addition, APO-peptides and parent peptides are tested against a panel of cancer cell lines. Cell death is measured using the Cytotox (Promega) assay kit which measures the release of lactate dehydrogenase.
PBL, peripheral blood lymphocytes; HUVEC, human umbilical vein endothelial cells; H460,non-small lung tumor; K562, chronic myelogenous leukemia; DoHH-2, B-cell cell lymphoma; P388, lymphocytic leukemia; P388ADR, lymphocytic leukemia, multidrug resistant; MCF-7, breast carcinoma; MCF-7ADR, breast carcinoma, multidrug resistant.

[2] = Single dose toxicity, intraperitoneal injection, formulations; settings: mouse, in vivo, ip, outbred ICR mice (Table 32)
Protocol: The single dose toxicity of a cationic peptide and antibiotic agent combination is examined in outbred ICR mice. Intraperitoneal injection of the combination in isotonic saline is carried out at increasing dose levels. The survival of the animals is monitored for 7 days. The number of animals surviving at each dose level is used to determine the maximum tolerated dose (MTD). In addition, the MTD can be determined after administration of the peptide and agent by different routes, at different time points, and in different formulations.

[3] = test system: mammalian red blood cells; settings: 37° C., 1 hour
Protocol: Candidate cationic peptides may be further tested for their toxicity to normal mammalian cells. An exemplary assay is a red blood cell (RBC) (erythrocyte) hemolysis assay. Briefly, in this assay, red blood cells are isolated from whole blood, typically by centrifugation, and washed free of plasma components. A 5% (v/v) suspension of erythrocytes in isotonic saline is incubated with different concentrations of peptide analogue. […] After incubation for approximately 1 hour at 37° C., the cells are centrifuged, and the absorbance of the supernatant at 540 nm is determined. A relative measure of lysis is determined by comparison to absorbance after complete lysis of erythrocytes using NH4Cl or equivalent (establishing a 100% value). A peptide with <10% lysis at 100 μg/ml is suitable. Preferably, there is <5% lysis at 100 μg/ml. Such peptides that are not lytic, or are only moderately lytic, are desirable and suitable for further screening.
Cationic peptides are tested for toxicity towards eukaryotic cells by measuring the extent of lysis of mammalian red blood cells (RBC). Briefly, in this assay, red blood cells are separated from whole blood by centrifugation and washed free of plasma components. A 5% (v/v) washed red blood cell suspension is prepared in isotonic saline. An aliquot of peptide in formulation is then added and mixed in. After incubation at 37° C. for 1 hour with constant agitation, the solution is centrifuged and the supernatant measured for absorbance at 540 nm to detect released hemoglobin.
A combination of cationic peptide and antibiotic agent is tested for toxicity towards eukaryotic cells by measuring the extent of lysis of mammalian red blood cells. Briefly, red blood cells are separated from whole blood by centrifugation, washed free of plasma components, and resuspended to a 5% (v/v) suspension in isotonic saline. […] Following incubation with constant agitation at 37° C. for 1 hour, the solution is centrifuged, and the absorbance of the supernatant is measured at 540 nm, which detects released hemoglobin. […]

For `CC[C@H](C)[C@H](NC(=O)[C@H](CC(C)C)NC(=O)[C@H](C)NC(=O)[C@@H]1CCCN1C(=O)[C@H](CC(C)C)NC(=O)CNC(=O)[C@@H](NC(=O)[C@@H](NC(=O)[C@H](CC(C)C)NC(=O)[C@@H](NC(=O)[C@H](CCCCN)NC(=O)[C@H](CCCCN)NC(=O)[C@@H](NC(=O)[C@H](C)NC(=O)[C@@H](NC(=O)[C@@H](NC(=O)[C@H](CC(C)C)NC(=O)[C@H](CCCCN)NC(=O)[C@H](CCCCN)NC(=O)[C@@H](NC(=O)[C@H](Cc1ccccc1)NC(=O)[C@H](CO)NC(=O)[C@H](CCCCN)NC(=O)[C@H](Cc1c[nH]c2ccccc12)NC(=O)[C@@H](N)CCCCN)[C@@H](C)CC)[C@@H](C)O)[C@@H](C)O)C(C)C)C(C)C)[C@@H](C)O)[C@@H](C)O)C(=O)N[C@@H](CO)C(=O)O` [MBI 29], the CC50 ([1]; DoHH-2 B-cell lymphoma cells, read-out: LC50 ± S.E., DoHH-2) was 2.1 ± 0.5 µg/mL (≈ 0.731 µM), the CC50 ([1]; H460 non-small lung tumor cells, read-out: LC50 ± S.E., H460) was 12.6 ± 10 µg/mL (≈ 4.39 µM) and the CC50 ([1]; K562, read-out: LC50 ± S.E., K562) was 1 µg/mL (≈ 0.348 µM). For the same molecule, the CC50 ([1]; MCF-7ADR multidrug resistant breast carcinoma cells, read-out: LC50 ± S.E., MCF-7 ADR) was 3.2 ± 1 µg/mL (≈ 1.11 µM), the CC50 ([1]; MCF-7 breast carcinoma cells, read-out: LC50 ± S.E., MCF-7) was 4 ± 2 µg/mL (≈ 1.39 µM) and the CC50 ([1]; P388, read-out: LC50 ± S.E., P388) was 1.4 ± 0.5 µg/mL (≈ 0.487 µM). It also gave a CC50 ([1]; P388 ADR, read-out: LC50 ± S.E., P388 ADR) of 2 ± 0.2 µg/mL (≈ 0.696 µM), a CC50 ([1]; PBL, peripheral blood lymphocytes, read-out: LC50 ± S.E., PBL) of 12 ± 10 µg/mL (≈ 4.18 µM) and a CC50 ([1]; human, human umbilical vein endothelial cells (HUVEC), read-out: LC50 ± S.E., HUVEC) of 10 µg/mL (≈ 3.48 µM). The MTD at 7 days [2] was 24 mg/kg and the “% Lysis” value [3] was 1.9%.
